# Data taken from ChEMBL document CHEMBL1201862, “PubChem BioAssay data set” (2004).
# The source made the active and inactive calls.
# Tests used:
# Estrogen receptor beta [1] = molecular target: T1, Estrogen receptor beta (Homo sapiens, UniProt Q92731);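 further: recombinant ER-beta bound to coactivator SRC1 peptide in presence of estradiol agonist; inhibitors block coactivator peptide binding and lower the FRET signal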
# Estrogen receptor beta [2] = molecular target: T1, Estrogen receptor beta; assay: blockers of SRC-3 recruitment to ERβ – biochemical, ELISA, streptavidin-HRP readout, orthogonal assay, confirmation (AID 1060)
# [3] = HEK293 Cytotoxicity Assay Measured in Cell-Based System Using Plate Reader - 7071-01_Inhibitor_Dose_CherryPick_Activity_Set2.; type: functional
# HEK293 [4] = assay: viability loss in HEK293T cells – cell-based, ATP luminescence, cherry-pick samples, cytotoxicity control, dose response (AID 687005); type: functional; conditions: Homo sapiens;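 further: cells exposed to compound for 48 hours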
# Estrogen receptor = molecular target: T2, Estrogen receptor (Homo sapiens, UniProt P03372);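 further: potency for inhibiting coactivator peptide recruitment to the receptor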
# T2 sequence (P03372 whole entry): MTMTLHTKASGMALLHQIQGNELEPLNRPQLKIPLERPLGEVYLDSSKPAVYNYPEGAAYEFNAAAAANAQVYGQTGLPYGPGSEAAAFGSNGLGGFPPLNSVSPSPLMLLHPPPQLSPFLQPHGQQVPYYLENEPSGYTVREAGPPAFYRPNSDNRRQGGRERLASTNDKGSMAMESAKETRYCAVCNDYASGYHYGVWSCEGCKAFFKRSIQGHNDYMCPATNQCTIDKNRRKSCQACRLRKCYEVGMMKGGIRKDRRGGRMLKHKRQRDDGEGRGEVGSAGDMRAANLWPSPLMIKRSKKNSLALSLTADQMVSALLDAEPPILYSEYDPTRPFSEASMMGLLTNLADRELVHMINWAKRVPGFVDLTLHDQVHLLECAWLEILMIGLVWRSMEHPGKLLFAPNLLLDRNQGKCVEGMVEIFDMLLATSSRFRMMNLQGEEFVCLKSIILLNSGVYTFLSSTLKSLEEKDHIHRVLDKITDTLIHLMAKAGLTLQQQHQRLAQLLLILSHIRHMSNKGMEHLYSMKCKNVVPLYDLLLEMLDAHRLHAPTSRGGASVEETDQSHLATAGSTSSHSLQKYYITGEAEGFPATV
# [5] = inhibitors of non-replicating M. tuberculosis, dose response, luciferase, dry powder (AID 651620); type: functional; conditions: Mycobacterium tuberculosis
# [6] = inhibitors of non-replicating M. tuberculosis, dose response, luciferase, dry powder (AID 651619); type: functional; conditions: Mycobacterium tuberculosis
# [7] = molecular target: Fructose-bisphosphate aldolase (Mycobacterium tuberculosis, UniProt P9WQA3); assay: Fluorescence-based biochemical high throughput dose response assay for inhibitors of the fructose-bisphosphate aldolase (FBA) of M. tuberculosis.; type: functional
# Sequence of Fructose-bisphosphate aldolase (P9WQA3 whole entry): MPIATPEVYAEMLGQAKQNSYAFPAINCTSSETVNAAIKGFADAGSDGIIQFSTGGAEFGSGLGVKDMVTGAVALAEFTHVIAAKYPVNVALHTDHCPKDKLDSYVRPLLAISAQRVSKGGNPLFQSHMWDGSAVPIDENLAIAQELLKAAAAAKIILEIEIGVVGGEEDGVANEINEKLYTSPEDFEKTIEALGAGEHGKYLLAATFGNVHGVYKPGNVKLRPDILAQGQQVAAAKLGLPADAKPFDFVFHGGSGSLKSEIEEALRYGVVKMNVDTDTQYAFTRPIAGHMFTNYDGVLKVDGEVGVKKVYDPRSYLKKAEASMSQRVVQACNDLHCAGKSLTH
# [8] = viability loss in HEK293 cells – cell-based, plate reader, cherry-picked samples, cytotoxicity control, dose response (AID 743446); type: functional
# HEK293 [9] = assay: cells; conditions: Homo sapiens
# [10] = viability loss in THP-1 monocytes – THP-1 cells, cytotoxicity control for Vif-APOBEC3G degradation inhibitor project, dose response (AID 1117359); type: functional; conditions: THP-1
# [11] = microbe, parasite or virus in culture; type: functional; conditions: Mycobacterium tuberculosis
# INS1 = assay: INS-1E survival protection against cytokine death – cell-based, luminescence, retest, dose response (AID 449756); type: functional; conditions: Rattus norvegicus;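 further: cell death triggered by IL-1 beta plus TNF-alpha plus IFN-gamma mixture; protective hits raise ATP signal compared with cytokine alone wells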
# [12] = blockers of bursicon-stimulated LGR2 cAMP reporter – cell-based, HEK293, CRE-luciferase reporter, cherry pick, set 2, dose response (AID 743343); type: functional;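 further: transfected cells were stimulated with diluted bursicon conditioned medium after compound addition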
# [13] = reduced cellular PGC1a acetyl-lysine signal – cell-based, cherry-picked samples, dose response (AID 720514); type: functional;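 further: potency may reflect raised or lowered acetylation signal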
# [14] = toxicity toward HepG2 liver cells – cell-based, plate reader, cherry-pick, antagonist series, cytotoxicity control, dose response (AID 743416); type: functional
# [15] = blockade of melanocortin 4 receptor signaling – cell-based, plate reader, cherry pick, counter-screen for LGR2 antagonist project, dose response (AID 743444); type: functional;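 further: transfected HEK 293 cells stimulated with alpha-MSH peptide; potency of inhibitors of the alpha-MSH evoked signal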
# HEK293 [16] = assay: cells; conditions: Homo sapiens; remark: listed apart in the source
# [17] = viability loss in HepG2 hepatoma cells – cell-based, ATP luminescence, cherry-pick, activator set 2, cytotoxicity control, dose response (AID 1053143); type: functional
# H4 = assay: Luminescence Cell-Based Dose Response HTS to Identify Activators of 5'UTR Stem-Loop Driven Prion Protein mRNA Translation in H4 Neuroglioblastoma Cells. [Related pubchem assays: 1829 (Project Summary), 1814 (Primary HTS)]; type: functional; conditions: Homo sapiens
# [18] = Luminescence Cell-Based Dose Response HTS to Identify Activators of Luciferase Translation or Activity in H4 […] Cells. [Related pubchem assays: 1829 (Project Summary), 1814 (Primary HTS)]; type: functional
# [19] = Trypanosoma cruzi growth suppression in host cells – NIH3T3 host cells, beta-gal luminescence, confirmation (AID 2044); type: functional, cell-based;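 further: intracellular parasites grown in NIH/3T3 mouse fibroblasts as host cells; luminescent beta-galactosidase reporter signal from transgenic T. cruzi replicating inside host cells; inhibitors lower the luminescence signal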
# A-375 = assay: MITF: Counter assay: A375 proliferation Measured in Cell-Based System Using Plate Reader - 2084-03_Inhibitor_Dose_DryPowder_Activity. [Related pubchem assays (depositor defined):AID488944]; type: functional; conditions: Homo sapiens
# [20] = NIH3T3 cell viability loss – ATP luminescence, mouse fibroblasts, counter-screen, dose response (AID 2010); type: functional, cell-based;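 further: cells exposed to compound for about 90 hours before reading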
# [21] = molecular target: Heat shock protein HSP 90-alpha (Homo sapiens, UniProt P07900); assay: Luminescence-based dose response biochemical high throughput screening assay for inhibitors of the Heat Shock Protein 90 (HSP90). [Related pubchem assays: 1831 (Summary AID.), 1846 (Confirmation screen.), 1789 (Primary screen.)]
# T1 sequence (Q92731 whole entry): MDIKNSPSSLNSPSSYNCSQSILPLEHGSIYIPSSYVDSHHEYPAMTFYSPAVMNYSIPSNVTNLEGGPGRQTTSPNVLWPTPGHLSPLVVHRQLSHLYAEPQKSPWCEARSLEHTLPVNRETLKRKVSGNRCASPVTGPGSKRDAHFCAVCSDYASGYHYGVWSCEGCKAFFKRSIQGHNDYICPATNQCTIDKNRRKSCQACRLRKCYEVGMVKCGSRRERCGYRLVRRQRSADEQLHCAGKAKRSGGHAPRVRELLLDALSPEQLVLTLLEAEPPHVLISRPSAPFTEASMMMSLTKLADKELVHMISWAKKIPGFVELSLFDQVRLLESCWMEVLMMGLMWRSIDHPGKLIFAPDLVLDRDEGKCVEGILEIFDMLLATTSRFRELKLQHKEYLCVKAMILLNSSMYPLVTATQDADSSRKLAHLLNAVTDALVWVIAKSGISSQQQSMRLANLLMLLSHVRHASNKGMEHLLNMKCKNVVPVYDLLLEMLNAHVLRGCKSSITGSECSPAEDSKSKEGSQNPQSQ
compound,measurement,setting,value
CC12CCCCC1(O)[N+](=O)C1=C(CCCC1)N2[O-] (configuration not stated),IC50,Estrogen receptor beta [1],10.9 µM (active)
same,IC50,Estrogen receptor beta [2],2.85 µM (not active)
COc1ccccc1CNC(=O)C[C@@H]1CC[C@@H]2[C@H](COc3ccc(NC(C)=O)cc3C(=O)N2C)O1,AC50,[3],37.8 µM (active)
same,AC50,HEK293 [4],37.8 µM (active)
CCOc1ccc(NC2=NC(=O)S/C2=C\c2ccc(OC)cc2)cc1,IC50,Estrogen receptor,18.8 µM (active)
same,IC50,Estrogen receptor beta [1],> 50 µM (not active)
same,IC50,Estrogen receptor beta [2],99.9 µM (not active)
Fc1ccc(CSc2nnc(-c3cccnc3)o2)cc1,IC90,[5],1 µM (active)
same,IC90,[6],1 µM (active)
Cc1nc2c(cc1N)nc(C)n2Cc1ccccc1,IC50,[7],0.653 µM (active)
O=C(Cn1ncc(Cl)c(Cl)c1=O)c1ccc2c(c1)OCCO2,AC50,[8],17 µM (active)
same,EC50,HEK293 [9],> 59.5 µM (inactive)
same,CC50,[10],9.67 µM (active)
same,CC50,[11],13.8 µM (active)
same,AC50,INS1,> 120 µM (inactive)
same,AC50,[12],28.4 µM (active)
same,AC50,[13],15.4 µM (active)
same,AC50,[14],21.3 µM (active)
same,AC50,[15],36.5 µM (active)
same,EC50,HEK293 [16],> 59.5 µM (inactive)
CCOC(=O)C1CCN(c2ccc(-c3cccs3)nn2)CC1,AC50,[17],26 µM (active)
same,EC50,H4,96.1 µM (active)
same,EC50,[18],0.391 µM (active)
Cc1cc(C)c2nc(N3CCC(C(=O)NCCCN4CC(C)CC(C)C4)CC3)sc2c1 (configuration not stated),EC50,[19],1.22 µM (active)
same,AC50,A-375,21.5 µM (active)
same,EC50,[20],> 60 µM (not active)
same,IC50,[21],8.62 µM (active)
